Test results: paper PMC11784026, “Phase 1 study of the safety, tolerability, and pharmacokinetics of a synthetic macrocyclic peptide antibiotic (BRII-693) in healthy adult participants” (Antimicrobial Agents and Chemotherapy, 2024)
Read-outs that look alike come from different tables or passages of the source. Where a SMILES comes first, the peptide text is derived from it. Bridges are numbered along the chain shown (N, C = ends). [ ]: non-standard residue; d: D form. The star is where a group is joined. X1 = O=C(c1ccc(Cl)cc1Cl)*; Dab = NCC[C@H](N)C(=O)O; Abu = CC[C@H](N)C(=O)O; Dap = NC[C@H](N)C(=O)O

Assay: Plasma pharmacokinetics after multiple ascending doses (MAD), phase 1
Type: in vivo, human (healthy adult participants)
Settings: for Vd: read-out: VZ
Protocol: Participants were discharged on day 11.
Plasma and urine PK parameters were summarized for each cohort using descriptive statistics. Analyses using linear models were performed to assess dose proportionality (both single-dose cohorts 1–7 and multiple-dose cohorts 8–10). Dose-linearity of Cmax and AUC across the dose range was assessed by fitting the power model with ln-transformed parameter as response variables and ln-transformed dose (continuous variable) as a fixed effect. For each PK parameter and study phase (SAD or MAD) separately, a pooled estimate (across all dose cohorts) of slope, corresponding 95% confidence interval (CI), and between-subject coefficient of variation (CV) were calculated. Dose proportionality was to be concluded if the 95% CI for the slope spans 1. […] Least square means (LSMs) and difference in LSMs with 90% CI were calculated; these values were then back exponentiated to give the geometric LSM, geometric mean ratio, and 90% CI.

[1] = human, plasma, iv, 100 mg, First q6h dose (day 3), 7-day MAD 100 mg q6h × 7, n = 3, arithmetic mean ± SD
[2] = human, plasma, iv, 100 mg, Last q6h dose (day 9), 7-day MAD 100 mg q6h × 7, n = 6, arithmetic mean ± SD
[3] = human, plasma, iv, 150 mg, First q6h dose (day 1), 14-day MAD 150 mg q6h × 14, Chinese, n = 10, arithmetic mean ± SD
[4] = human, plasma, iv, 150 mg, First q6h dose (day 1), 14-day MAD 150 mg q6h × 14, non-Chinese, n = 10, arithmetic mean ± SD
[5] = human, plasma, iv, 150 mg, First q6h dose (day 3), 7-day MAD 150 mg q6h × 7, n = 5, arithmetic mean ± SD
[6] = human, plasma, iv, 150 mg, Last q6h dose (day 9), 7-day MAD 150 mg q6h × 7, n = 5, arithmetic mean ± SD
[7] = human, plasma, iv, 150 mg, Last q6h dose (day 14), 14-day MAD 150 mg q6h × 14, Chinese, n = 6, arithmetic mean ± SD
[8] = human, plasma, iv, 150 mg, Last q6h dose (day 14), 14-day MAD 150 mg q6h × 14, non-Chinese, n = 10, arithmetic mean ± SD
[9] = human, plasma, iv, 200 mg, First q6h dose (day 3), 7-day MAD 200 mg q6h × 7, n = 4, arithmetic mean ± SD
[10] = human, plasma, iv, 200 mg, Last q6h dose (day 9), 7-day MAD 200 mg q6h × 7, n = 5, arithmetic mean ± SD

CC[C@@H]1NC(=O)[C@@H](CC(C)C)NC(=O)[C@H](CCN)NC(=O)[C@@H](NC(=O)[C@H](CN)NC(=O)[C@@H](NC(=O)[C@H](CCN)NC(=O)c2ccc(Cl)cc2Cl)[C@@H](C)O)CCNC(=O)[C@H]([C@@H](C)O)NC(=O)[C@H](CCN)NC(=O)[C@H](CCN)NC1=O [BRII-693] (X1-[Dab]T[Dap][Dab][Dab][dL][Abu][Dab][Dab]T; lactam 4-C; N-terminus assumed)
Tmax (First q6h dose (day 1), 14-day MAD 150 mg q6h × 14, Chinese, n = 10, median (range)): 1.08 (1.02, 1.12) h
Tmax (First q6h dose (day 1), 14-day MAD 150 mg q6h × 14, non-Chinese, n = 10, median (range)): 1.07 (1.03, 1.25) h
Tmax (First q6h dose (day 3), 7-day MAD 100 mg q6h × 7, n = 6, median (range)): 1.13 (1.08, 1.25) h
t1/2 (First q6h dose (day 3), 7-day MAD 150 mg q6h × 7, n = 5, arithmetic mean ± SD): 2.40 ± 0.21 h
Tmax (First q6h dose (day 3), 7-day MAD 150 mg q6h × 7, n = 5, median (range)): 1.07 (1.02, 1.15) h
ARAUC (accumulation ratio based on AUC) (Last q6h dose (day 9), 7-day MAD 100 mg q6h × 7, n = 6, arithmetic mean ± SD): 1.59 ± 0.14
ARAUC (accumulation ratio based on AUC) (Last q6h dose (day 9), 7-day MAD 150 mg q6h × 7, n = 5, arithmetic mean ± SD): 1.48 ± 0.10
ARAUC (accumulation ratio based on AUC) (Last q6h dose (day 9), 7-day MAD 200 mg q6h × 7, n = 5, arithmetic mean ± SD): 1.69 ± 0.34
ARAUC (accumulation ratio based on AUC) (Last q6h dose (day 14), 14-day MAD 150 mg q6h × 14, Chinese, n = 6, arithmetic mean ± SD): 1.58 ± 0.19
Tmax (Last q6h dose (day 14), 14-day MAD 150 mg q6h × 14, Chinese, n = 6, median (range)): 1.07 (1.05, 1.22) h
ARAUC (accumulation ratio based on AUC) (Last q6h dose (day 14), 14-day MAD 150 mg q6h × 14, non-Chinese, n = 10, arithmetic mean ± SD): 1.58 ± 0.17
Tmax (Last q6h dose (day 14), 14-day MAD 150 mg q6h × 14, non-Chinese, n = 10, median (range)): 1.07 (1.02, 1.10) h
Geometric mean ratio for AUC0-6h, Chinese vs non-Chinese (after the first dose on day 1, 150 mg q6h × 14, 90% CI: 0.966, 1.20): 1.08
Geometric mean ratio for Cmax, Chinese vs non-Chinese (after the first dose on day 1, 150 mg q6h × 14, 90% CI: 0.970, 1.24): 1.10
Geometric mean ratio for AUC0-6h, Chinese vs non-Chinese (after the last dose on Day 14, 150 mg q6h × 14, 90% CI 0.926, 1.25): 1.08
Geometric mean ratio for Cmax, Chinese vs non-Chinese (after the last dose on Day 14, 150 mg q6h × 14, 90% CI 0.935, 1.20): 1.06
Cmax (human, plasma, iv, 100 mg, First q6h dose (day 3), 7-day MAD 100 mg q6h × 7, 1-h IV infusion, plasma, n = 6, arithmetic mean ± SD): 5960 ± 710 ng/mL
clearance [1]: 80.5 mL/min
Vd [1]: 17.1 ± 2.72 L
half-life (human, plasma, iv, 100 mg, First q6h dose (day 3), 7-day MAD 100 mg q6h × 7, n = 6, arithmetic mean ± SD): 2.88 ± 0.5 h
AUC(0-t) (human, plasma, iv, 100 mg, First q6h dose (day 3), 7-day MAD 100 mg q6h × 7, n = 6, arithmetic mean ± SD, read-out: AUC0-6h): 18000 ± 2380 ng·h/mL
clearance [2]: 59.5 mL/min
half-life [2]: 7.58 ± 1.72 h
AUC(0-t) (human, plasma, iv, 100 mg, Last q6h dose (day 9), 7-day MAD 100 mg q6h × 7, n = 6, arithmetic mean ± SD, read-out: AUC0–6h): 28600 ± 4480 ng·h/mL
Vd [2]: 38.4 ± 8.18 L
Tmax (human, plasma, iv, 100 mg, Last q6h dose (day 9), 7-day MAD 100 mg q6h × 7, n = 6, median (range), read-out: Tmax): 1.18 h
Cmax (human, plasma, iv, 100 mg, Last q6h dose (day 9), 7-day MAD 100 mg q6h × 7, plasma, n = 6, arithmetic mean ± SD): 8120 ± 1000 ng/mL
clearance [3]: 77.7 mL/min
half-life [3]: 2.15 ± 0.28 h
AUC(0-t) (human, plasma, iv, 150 mg, First q6h dose (day 1), 14-day MAD 150 mg q6h × 14, Chinese, n = 10, arithmetic mean ± SD, read-out: AUC0-6h): 27300 ± 4140 ng·h/mL
Vd [3]: 14.4 ± 2.93 L
Cmax (human, plasma, iv, 150 mg, First q6h dose (day 1), 14-day MAD 150 mg q6h × 14, Chinese, plasma, n = 10, arithmetic mean ± SD): 10200 ± 1890 ng/mL
clearance [4]: 80 mL/min
half-life [4]: 2.42 ± 0.29 h
AUC(0-t) (human, plasma, iv, 150 mg, First q6h dose (day 1), 14-day MAD 150 mg q6h × 14, non-Chinese, n = 10, arithmetic mean ± SD, read-out: AUC0-6h): 25200 ± 2860 ng·h/mL
Vd [4]: 16.7 ± 2.57 L
Cmax (human, plasma, iv, 150 mg, First q6h dose (day 1), 14-day MAD 150 mg q6h × 14, non-Chinese, plasma, n = 10, arithmetic mean ± SD): 9200 ± 1050 ng/mL
Cmax (human, plasma, iv, 150 mg, First q6h dose (day 3), 7-day MAD 150 mg q6h × 7, 1-h IV infusion, plasma, n = 5, arithmetic mean ± SD): 8690 ± 1240 ng/mL
clearance [5]: 82.3 mL/min
AUC(0-t) (human, plasma, iv, 150 mg, First q6h dose (day 3), 7-day MAD 150 mg q6h × 7, n = 5, arithmetic mean ± SD, read-out: AUC0-6h): 24800 ± 3450 ng·h/mL
Vd [5]: 17.2 ± 3.33 L
clearance [6]: 69.2 mL/min
half-life [6]: 6.76 ± 0.35 h
AUC(0-t) (human, plasma, iv, 150 mg, Last q6h dose (day 9), 7-day MAD 150 mg q6h × 7, n = 5, arithmetic mean ± SD, read-out: AUC0–6h): 36600 ± 4360 ng·h/mL
Vd [6]: 40.9 ± 9.47 L
Tmax (human, plasma, iv, 150 mg, Last q6h dose (day 9), 7-day MAD 150 mg q6h × 7, n = 5, median (range), read-out: Tmax): 1.07 h
Cmax (human, plasma, iv, 150 mg, Last q6h dose (day 9), 7-day MAD 150 mg q6h × 7, plasma, n = 5, arithmetic mean ± SD): 11700 ± 1540 ng/mL
clearance [7]: 59.5 mL/min
half-life [7]: 12.4 ± 6.92 h
AUC(0-t) (human, plasma, iv, 150 mg, Last q6h dose (day 14), 14-day MAD 150 mg q6h × 14, Chinese, n = 6, arithmetic mean ± SD, read-out: AUC0–6h): 42500 ± 4960 ng·h/mL
Vd [7]: 61.9 ± 30.2 L
Cmax (human, plasma, iv, 150 mg, Last q6h dose (day 14), 14-day MAD 150 mg q6h × 14, Chinese, plasma, n = 6, arithmetic mean ± SD): 13300 ± 1500 ng/mL
clearance [8]: 64.7 mL/min
half-life [8]: 15.6 ± 11.7 h
AUC(0-t) (human, plasma, iv, 150 mg, Last q6h dose (day 14), 14-day MAD 150 mg q6h × 14, non-Chinese, n = 10, arithmetic mean ± SD, read-out: AUC0–6h): 39900 ± 7150 ng·h/mL
Vd [8]: 81.4 ± 55.6 L
Cmax (human, plasma, iv, 150 mg, Last q6h dose (day 14), 14-day MAD 150 mg q6h × 14, non-Chinese, plasma, n = 10, arithmetic mean ± SD): 12700 ± 1780 ng/mL
Cmax (human, plasma, iv, 200 mg, First q6h dose (day 3), 7-day MAD 200 mg q6h × 7, 1-h IV infusion, plasma, n = 5, arithmetic mean ± SD): 13500 ± 4430 ng/mL
clearance [9]: 76.3 mL/min
Vd [9]: 15.7 ± 5.81 L
half-life (human, plasma, iv, 200 mg, First q6h dose (day 3), 7-day MAD 200 mg q6h × 7, n = 5, arithmetic mean ± SD): 2.49 ± 0.51 h
AUC(0-t) (human, plasma, iv, 200 mg, First q6h dose (day 3), 7-day MAD 200 mg q6h × 7, n = 5, arithmetic mean ± SD, read-out: AUC0-6h): 36800 ± 10100 ng·h/mL
Tmax (human, plasma, iv, 200 mg, First q6h dose (day 3), 7-day MAD 200 mg q6h × 7, n = 5, median (range), read-out: Tmax): 1.08 h
clearance [10]: 57.8 mL/min
half-life [10]: 7.58 ± 0.93 h
AUC(0-t) (human, plasma, iv, 200 mg, Last q6h dose (day 9), 7-day MAD 200 mg q6h × 7, n = 5, arithmetic mean ± SD, read-out: AUC0–6h): 61300 ± 15700 ng·h/mL
Vd [10]: 37.3 ± 8.4 L
Tmax (human, plasma, iv, 200 mg, Last q6h dose (day 9), 7-day MAD 200 mg q6h × 7, n = 5, median (range), read-out: Tmax): 1.1 h
Cmax (human, plasma, iv, 200 mg, Last q6h dose (day 9), 7-day MAD 200 mg q6h × 7, plasma, n = 5, arithmetic mean ± SD): 18300 ± 4150 ng/mL
